Three compounds from article PMC9227830, “Neuroprotective Effect of Yucca schidigera Roezl ex Ortgies Bark Phenolic Fractions, Yuccaol B and Gloriosaol A on Scopolamine-Induced Memory Deficits in Zebrafish” (Molecules, 2022) can be followed below.

For the assay, the target named is T1, Glycine max (soybean) 15-lipoxygenase (15-LOX) (Glycine max, UniProt P08170).
T1 construct: gene LOX1.1; commercial native soybean enzyme (Sigma-Aldrich)
T1 sequence (P08170 1-839): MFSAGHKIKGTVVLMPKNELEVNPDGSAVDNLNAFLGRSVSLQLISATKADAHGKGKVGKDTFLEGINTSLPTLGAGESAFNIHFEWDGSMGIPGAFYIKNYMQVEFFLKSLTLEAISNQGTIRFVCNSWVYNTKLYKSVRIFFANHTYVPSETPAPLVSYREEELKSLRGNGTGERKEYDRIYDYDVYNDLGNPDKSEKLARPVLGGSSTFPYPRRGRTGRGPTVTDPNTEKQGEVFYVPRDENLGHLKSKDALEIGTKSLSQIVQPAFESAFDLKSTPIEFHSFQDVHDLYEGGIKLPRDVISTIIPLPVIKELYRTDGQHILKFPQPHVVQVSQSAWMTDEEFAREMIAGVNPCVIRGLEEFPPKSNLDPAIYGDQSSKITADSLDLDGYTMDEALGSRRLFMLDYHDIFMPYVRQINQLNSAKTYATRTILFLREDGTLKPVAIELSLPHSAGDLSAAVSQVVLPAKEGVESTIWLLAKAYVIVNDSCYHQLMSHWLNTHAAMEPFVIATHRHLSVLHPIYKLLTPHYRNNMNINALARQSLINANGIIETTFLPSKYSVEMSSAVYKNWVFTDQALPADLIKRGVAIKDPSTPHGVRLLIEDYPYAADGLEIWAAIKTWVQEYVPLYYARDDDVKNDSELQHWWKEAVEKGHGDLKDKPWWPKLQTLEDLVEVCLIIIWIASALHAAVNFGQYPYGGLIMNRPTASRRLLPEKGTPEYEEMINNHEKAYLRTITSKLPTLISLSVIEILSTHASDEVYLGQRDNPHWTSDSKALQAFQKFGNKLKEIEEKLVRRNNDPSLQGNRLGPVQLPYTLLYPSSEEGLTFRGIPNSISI
Description: UV spectrophotometry at […] nm, linoleic acid oxidation (modified Malterud). Particulars: read-out: EC50 (the source's name) (converted). In kind it is biochemical.
Consider `COc1c(O)cc(/C=C/c2cc(O)cc3c2[C@]2(C(=O)O3)c3c(O)cc(O)cc3O[C@H]2c2ccc(O)cc2)c2c1OC(=O)[C@]21c2c(O)cc(O)cc2O[C@H]1c1ccc(O)cc1` [GloA, gloriosaol A], for which the IC50 was 15.2 µM. The figure for `O=C1Oc2cc(O)cc(/C=C/c3ccc(O)cc3)c2[C@@]12c1c(O)cc(O)cc1O[C@H]2c1ccc(O)cc1` [YuB, yuccaol B] is 19.5 µM. The figure for `O=C1O[C@H]([C@@H](O)CO)C(O)=C1O` [vitamin C, reference compound] is 122 µM.
